Target: human VPS34 (Homo sapiens (Human), UniProt Q8NEB9)
Experiment: Human VPS34 enzyme assay (Adapta TR-FRET ADP detection)
Format: biochemical
Design: Percent Inhibition: dose or concentration left out as unconfirmed
Conditions: for IC50: IC50 range class

Sequence of human VPS34 (Q8NEB9 whole entry): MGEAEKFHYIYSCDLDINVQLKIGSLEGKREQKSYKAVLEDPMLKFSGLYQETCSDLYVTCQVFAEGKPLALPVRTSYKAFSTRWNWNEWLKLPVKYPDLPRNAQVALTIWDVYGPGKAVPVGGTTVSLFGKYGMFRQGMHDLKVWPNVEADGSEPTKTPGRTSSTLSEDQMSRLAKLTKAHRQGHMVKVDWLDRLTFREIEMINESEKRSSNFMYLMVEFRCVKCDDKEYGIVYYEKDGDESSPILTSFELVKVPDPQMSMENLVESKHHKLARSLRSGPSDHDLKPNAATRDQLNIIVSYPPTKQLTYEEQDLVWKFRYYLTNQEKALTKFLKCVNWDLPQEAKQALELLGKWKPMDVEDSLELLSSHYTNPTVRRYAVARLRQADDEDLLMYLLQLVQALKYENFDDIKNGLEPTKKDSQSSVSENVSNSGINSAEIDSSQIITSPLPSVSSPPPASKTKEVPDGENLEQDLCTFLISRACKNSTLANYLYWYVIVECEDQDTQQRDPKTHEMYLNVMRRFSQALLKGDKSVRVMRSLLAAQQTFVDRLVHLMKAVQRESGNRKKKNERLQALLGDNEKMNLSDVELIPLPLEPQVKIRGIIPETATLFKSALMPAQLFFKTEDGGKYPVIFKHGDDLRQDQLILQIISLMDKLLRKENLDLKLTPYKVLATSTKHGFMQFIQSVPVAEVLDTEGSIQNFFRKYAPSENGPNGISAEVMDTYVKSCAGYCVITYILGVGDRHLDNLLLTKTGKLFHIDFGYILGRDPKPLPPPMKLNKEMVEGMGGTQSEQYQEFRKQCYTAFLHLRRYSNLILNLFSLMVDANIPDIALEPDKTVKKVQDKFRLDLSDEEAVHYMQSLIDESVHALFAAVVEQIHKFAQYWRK

SMILES | IC50 | Percent Inhibition
Cc1nccc(Nc2cc(-c3cnc(C)c(C(=O)NCC4CC4)c3)ccn2)n1 [Compound I-285, N-(cyclopropylmethyl)-6-methyl-2′-((2-methylpyrimidin-4-yl)amino)-[3,4′-bipyridine]-5-carboxamide] | 10 to 50 nM | –
Cc1nccc(Nc2cc(-c3cnc(N)c(C(=O)N(C)C45CC(C4)C5)c3)ccn2)n1 [Compound I-277, 6-amino-N-(bicyclo[1.1.1]pent-1-yl)-N-methyl-2′-[(2-methylpyrimidin-4-yl)amino]-3,4′-bipyridine-5-carboxamide] | < 10 nM | 100%
CCOC(=O)Nc1cc(-c2cnc(C)c(NS(=O)(=O)c3ccc(Cl)cc3F)c2)ccn1 [Compound I-456, ethyl (5-{[(4-chloro-2-fluorophenyl)sulfonyl]amino}-6-methyl-3,4′-bipyridin-2′-yl}carbamate] | < 10 nM | –
CC(=O)Nc1cc(-c2cnc(N)c(S(=O)(=O)Nc3ccc4ccccc4c3)c2)ccn1 [Compound I-98, N-[6-amino-5-(2-naphthylsulfamoyl)-3,4′-bipyridin-2′-yl]acetamide] | 10 to 50 nM | –
CC(=O)Nc1cc(-c2cnc(N)c(C(=O)N3CCC3)c2)ccn1 [Compound I-200, N-[6-amino-5-(azetidin-1-ylcarbonyl)-3,4′-bipyridin-2′-yl]acetamide] | < 10 nM | –
CC(=O)Nc1cc(-c2cnc(C)c(NS(=O)(=O)c3ccc(C)cc3F)c2)ccn1 [Compound I-182, N-(5-{[(2-fluoro-4-methylphenyl)sulfonyl]amino}-6-methyl-3,4′-bipyridin-2′-yl)acetamide] | < 10 nM | –
CC(=O)Nc1cc(-c2cnc(N)c(S(=O)(=O)Nc3cccnc3)c2)ccn1 [Compound I-204, N-[6-amino-5-(pyridin-3-ylsulfamoyl)-3,4′-bipyridin-2′-yl]acetamide] | < 10 nM | –
CC(=O)Nc1cc(-c2cncc(S(=O)(=O)Nc3ccccc3)c2)ccn1 [Compound I-459, N-[5-(phenylsulfamoyl)-3,4′-bipyridin-2′-yl]acetamide] | 10 to 50 nM | –
CC(=O)Nc1cc(-c2cc(N(C)S(C)(=O)=O)c(C)[n+]([O-])c2)ccn1 [Compound I-129, N-(4-{6-methyl-5-[methyl(methylsulfonyl)amino]-1-oxidopyridin-3-yl}pyridin-2-yl)acetamide] | > 100 nM | 100%
Cc1nccc(Nc2cc(-c3cc(NC(=O)N4CC(F)(F)C4)c4ccnn4c3)ccn2)n1 [Compound I-407, 3,3-difluoro-N-(6-{2-[(2-methylpyrimidin-4-yl)amino]pyridin-4-yl}pyrazolo[1,5-a]pyridin-4-yl)azetidine-1-carboxamide] | 10 to 50 nM | –
Cc1cc(Nc2cc(-c3cnc(Cl)c(NS(=O)(=O)c4ccc(F)cc4F)c3C)ccn2)nc(C)n1 [Compound I-218, N-{6-chloro-2′-[(2,6-dimethylpyrimidin-4-yl)amino]-4-methyl-3,4′-bipyridin-5-yl}-2,4-difluorobenzenesulfonamide] | 10 to 50 nM | >99%
Cc1ccc(Oc2cc(-c3ccnc(Nc4ccnc(C)n4)c3)cnc2C)nc1 [Compound I-390, 6-methyl-5-[(5-methylpyridin-2-yl)oxy]-N-(2-methylpyrimidin-4-yl)-3,4′-bipyridin-2′-amine] | 10 to 50 nM | –
CC(=O)Nc1cc(-c2cncc(N)c2)ccn1 [Compound I-139, N-(5-amino-3,4′-bipyridin-2′-yl)acetamide] | > 100 nM | –
CC(=O)Nc1cc(-c2cnc(C)c(N3CCNS3(=O)=O)c2)ccn1 [Compound I-352, N-[5-(1,1-dioxido-1,2,5-thiadiazolidin-2-yl)-6-methyl-3,4′-bipyridin-2′-yl]acetamide] | 50 to 100 nM | –
CCN(C)S(=O)(=O)Nc1cc(-c2ccnc(NC(C)=O)c2)cnc1C [Compound I-273, N-(5-{[ethyl(methyl)sulfamoyl]amino}-6-methyl-3,4′-bipyridin-2′-yl)acetamide] | < 10 nM | –
Cc1nccc(Nc2cc(-c3cnc(O)c(S(=O)(=O)NC4CCC4)c3)ccn2)n1 [Compound I-279, N-cyclobutyl-6-hydroxy-2′-[(2-methylpyrimidin-4-yl)amino]3,4′-bipyridine-5-sulfonamide] | 10 to 50 nM | –
CC(=O)Nc1cc(-c2cnc(N(C)C)c(NS(=O)(=O)c3ccc(F)cc3F)c2)ccn1 [Compound I-25, N-[5-{[(2,4-difluorophenyl)sulfonyl]amino}-6-(dimethylamino)-3,4′-bipyridin-2′-yl]acetamide] | 10 to 50 nM | –
CC(=O)Nc1cc(-c2cnc(N)c(S(=O)(=O)N(C)c3ccccc3)c2)ccn1 [Compound I-37, N-{6-amino-5-[methyl(phenyl)sulfamoyl]-3,4′-bipyridin-2′-yl}acetamide] | < 10 nM | –
COC(=O)Nc1cc(-c2cnc(C)c(NS(=O)(=O)c3ccc(Cl)cc3F)c2)ccn1 [Compound I-417, methyl (5-{[(4-chloro-2-fluorophenyl)sulfonyl]amino}-6-methyl-3,4′-bipyridin-2′-yl)carbamate] | < 10 nM | –
COc1ncc(-c2ccnc(NC(C)=O)c2)c(C)c1NS(=O)(=O)c1ccc(F)cc1F [Compound I-248, N-(5-{[(2,4-difluorophenyl)sulfonyl]amino}-6-methoxy-4-methyl-3,4′-bipyridin-2′-yl)acetamide] | 10 to 50 nM | –
Cc1nccc(Nc2cc(-c3cncc(C(=O)N(C)C45CC(C4)C5)c3)ccn2)n1 [Compound I-234, N-(bicyclo[1.1.1]pent-1-yl)-N-methyl-2′-[(2-methylpyrimidin-4-yl)amino]-3,4′-bipyridine-5-carboxamide] | 10 to 50 nM | –

SMILES | IC50 | Percent Inhibition
CC(=O)Nc1cc(-c2cncc(C(=O)N(C)C)c2)ccn1 [Compound I-48, 2′-acetamido-N,N-dimethyl-3,4′-bipyridine-5-carboxamide] | > 100 nM | –
CC(=O)Nc1cc(-c2cnc(C)c(NS(=O)(=O)c3ccc(C(F)(F)F)nc3)c2)ccn1 [Compound I-1] | < 10 nM | –
Cc1nccc(Nc2cc(-c3cnc(Cl)c(C(=O)N4CCC4)c3C)ccn2)n1 [Compound I-457, axetidin-1-yl{6-chloro-4-methyl-2′-[(2-methylpyrimidin-4-yl)amino]-3,4′-bipyridine-5-yl)methanone] | 10 to 50 nM | –
CC(=O)Nc1cc(-c2cnc3[nH]ncc3c2)c(C)cn1 [Compound I-209, N-[5-methyl-4-(1H-pyrazolo[3,4-b]pyridin-5-yl)pyridin-2-yl]acetamide] | > 100 nM | –
CC(=O)Nc1cc(-c2cnc(N)c(N3CCCN(C)S3(=O)=O)c2)ccn1 [Compound I-323, N-[6-amino-5-(6-methyl-1,1-dioxido-1,2,6-thiadiazinan-2-yl)-3,4′-bipyridin-2′-yl]acetamide] | 10 to 50 nM | –
CNc1ncc(-c2ccnc(NC(C)=O)c2)cc1N(C)S(C)(=O)=O [Compound I-147, N-{6-(methylamino)-5-[methyl(methylsulfonyl)amino]-3,4′-bipyridin-2′-yl}acetamide] | < 10 nM | –
CC(=O)Nc1cc(-c2cnc(N)c(S(=O)(=O)Nc3ccccc3)c2)ccn1 [Compound I-43] | < 10 nM | –
CC(=O)Nc1cc(-c2cc(S(C)(=O)=O)c[n+]([O-])c2)ccn1 [Compound I-191, N-{4-[5-(methylsulfonyl)-1-oxidopyridin-3-yl]pyridin-2-yl}acetamide] | > 100 nM | –
CC(=O)Nc1cc(-c2cncc(NS(=O)(=O)c3ccc(F)cc3F)c2Cl)ccn1 [Compound I-394, N-(4-chloro-5-{[(2,4-difluorophenyl)sulfonyl]amino}-3,4′-bipyridin-2′-yl)acetamide] | 10 to 50 nM | –
CC(=O)Nc1cc(-c2cnc(C)c(N(CC3CC3)S(=O)(=O)C3CC3)c2)ccn1 [Compound I-83, N-{5-[(cyclopropylmethyl)(cyclopropylsulfonyl)amino]-6-methyl-3,4′-bipyridin-2′-yl}acetamide] | > 100 nM | –
CC(=O)Nc1cc(-c2cnc(N)c(C(=O)Nc3cccc(F)c3)c2)ccn1 [Compound I-82, 2′-acetamido-6-amino-N-(3-fluorophenyl)-3,4′-bipyridine-5-carboxamide] | 10 to 50 nM | –
CC(=O)Nc1cc(-c2cnc(Cl)c(S(=O)(=O)N[C@H](CO)c3ccccc3)c2)ccn1 [Compound I-330, N-(6-chloro-5-{[(1S)-2-hydroxy-1-phenylethyl]sulfamoyl}-3,4′-bipyridin-2′-yl)acetamide] | > 100 nM | >99%
CC(=O)Nc1cc(-c2cnc3[nH]cc(S(=O)(=O)c4ccccc4)c3c2)ccn1 [Compound I-176, N-{4-[3-(phenylsulfonyl)-1H-pyrrolo[2,3-b]pyridin-5-yl]pyridin-2-yl}acetamide] | 10 to 50 nM | –
CC(=O)Nc1cc(-c2cnc(C)c(NS(=O)(=O)c3ccc(C(C)(C)C)cc3)c2)ccn1 [Compound I-131, N-(5-{[(4-tert-butylphenyl)sulfonyl]amino}-6-methyl-3,4′-bipyridin-2′-yl)acetamide] | < 10 nM | –
CC(=O)Nc1cc(-c2cnc(C)c(NS(=O)(=O)c3ccccc3C(F)(F)F)c2)ccn1 [Compound I-62, N-[6-methyl-5-({[2-(trifluoromethyl)phenyl]sulfonyl}amino)-3,4′-bipyridin-2′-yl]acetamide] | < 10 nM | –
CC(=O)Nc1cc(-c2cnc(C)c(NS(=O)(=O)N(C)c3ccccc3)c2)ccn1 [Compound I-494, N-(6-methyl-5-{[methyl(phenyl)sulfamoyl]amino}-3,4′-bipyridin-2′-yl)acetamide] | 50 to 100 nM | –
CC(=O)Nc1cc(-c2cnc(C#N)c(N3CCCCC3C)c2)ccn1 (stereo not drawn) [Compound I-380, N-[6-cyano-5-(2-methylpiperidin-1-yl)-3,4′-bipyridin-2′-yl]acetamide] | > 100 nM | –
CC(=O)Nc1cc(-c2cnc(C)c(N3CCN(C)S3(=O)=O)c2)ccn1 [Compound I-386, N-[6-methyl-5-(5-methyl-1,1-dioxido-1,2,5-thiadiazolidin-2-yl)-3,4′-bipyridin-2′-yl]acetamide] | 10 to 50 nM | –
COC(=O)Nc1cc(-c2cnc(N)c(S(=O)(=O)N(C)C)c2)ccn1 [Compound I-171, Methyl [6-amino-5-(dimethylsulfamoyl)-3,4′-bipyridin-2′-yl]carbamate] | < 10 nM | –
CC(=O)Nc1cc(-c2cncc(C=O)c2)ccn1 [Compound I-184, N-(5-formyl-3,4′-bipyridin-2′-yl)acetamide] | > 100 nM | –

From patent US9751854B2 (Millennium Pharmaceuticals, Inc., priority 2014, dated 2017)
